± gives the expanded uncertainty stated by the source.
Details: Liquid, Bellows volumetry

CCCCCCCCOS(=O)(=O)[O-].CCCCn1cc[n+](C)c1 [1-butyl-3-methylimidazolium octyl sulfate]
mass density [kg/m3]
Details | 312.9 K | 332.8 K | 352.8 K | 373 K | 393.1 K | 413 K | 432.9 K | 452.7 K | 472.6 K
100 kPa | 1060 ± 6 | – | – | – | – | – | – | – | –
10000 kPa | 1065 ± 6 | 1052 ± 6 | 1040 ± 6 | 1028 ± 6 | 1016 ± 6 | 1004 ± 5 | 992 ± 5 | 978 ± 5 | 964 ± 5
20000 kPa | 1070 ± 6 | 1058 ± 6 | 1046 ± 6 | 1034 ± 6 | 1023 ± 6 | 1011 ± 6 | 999 ± 5 | 985 ± 5 | 972 ± 5
30000 kPa | 1075 ± 6 | 1063 ± 6 | 1051 ± 6 | 1040 ± 6 | 1028 ± 6 | 1017 ± 6 | 1006 ± 5 | 992 ± 5 | 980 ± 5
40000 kPa | 1080 ± 6 | 1068 ± 6 | 1056 ± 6 | 1045 ± 6 | 1034 ± 6 | 1023 ± 6 | 1012 ± 6 | 999 ± 5 | 987 ± 5
50000 kPa | 1084 ± 6 | 1073 ± 6 | 1061 ± 6 | 1050 ± 6 | 1039 ± 6 | 1029 ± 6 | 1018 ± 6 | 1005 ± 5 | 993 ± 5
60000 kPa | 1091 ± 6 | 1077 ± 6 | 1066 ± 6 | 1055 ± 6 | 1045 ± 6 | 1034 ± 6 | 1023 ± 6 | 1011 ± 6 | 999 ± 5
70000 kPa | 1093 ± 6 | 1081 ± 6 | 1070 ± 6 | 1060 ± 6 | 1049 ± 6 | 1039 ± 6 | 1029 ± 6 | 1017 ± 6 | 1005 ± 5
80000 kPa | 1097 ± 6 | 1085 ± 6 | 1075 ± 6 | 1064 ± 6 | 1054 ± 6 | 1044 ± 6 | 1034 ± 6 | 1022 ± 6 | 1011 ± 6
90000 kPa | 1096 ± 6 | 1089 ± 6 | 1079 ± 6 | 1068 ± 6 | 1058 ± 6 | 1049 ± 6 | 1038 ± 6 | 1027 ± 6 | 1016 ± 6
100000 kPa | – | 1093 ± 6 | 1083 ± 6 | 1073 ± 6 | 1063 ± 6 | 1053 ± 6 | 1043 ± 6 | 1032 ± 6 | 1021 ± 6
110000 kPa | – | 1097 ± 6 | 1087 ± 6 | 1077 ± 6 | 1067 ± 6 | 1057 ± 6 | 1048 ± 6 | 1036 ± 6 | 1026 ± 6
120000 kPa | – | 1101 ± 7 | 1090 ± 6 | 1080 ± 6 | 1071 ± 6 | 1062 ± 6 | 1052 ± 6 | 1041 ± 6 | 1030 ± 6
130000 kPa | – | 1104 ± 7 | 1094 ± 6 | 1084 ± 6 | 1075 ± 6 | 1066 ± 6 | 1056 ± 6 | 1045 ± 6 | 1035 ± 6
140000 kPa | – | 1107 ± 7 | 1097 ± 6 | 1088 ± 6 | 1078 ± 6 | 1069 ± 6 | 1060 ± 6 | 1049 ± 6 | 1039 ± 6
150000 kPa | – | 1111 ± 7 | 1101 ± 7 | 1091 ± 6 | 1082 ± 6 | 1073 ± 6 | 1064 ± 6 | 1053 ± 6 | 1043 ± 6
160000 kPa | – | 1114 ± 7 | 1104 ± 7 | 1095 ± 6 | 1086 ± 6 | 1077 ± 6 | 1068 ± 6 | 1057 ± 6 | 1047 ± 6
170000 kPa | – | 1117 ± 7 | 1107 ± 7 | 1098 ± 7 | 1089 ± 6 | 1080 ± 6 | 1071 ± 6 | 1061 ± 6 | 1051 ± 6
180000 kPa | – | 1120 ± 7 | 1111 ± 7 | 1102 ± 7 | 1093 ± 6 | 1084 ± 6 | 1075 ± 6 | 1065 ± 6 | 1055 ± 6
190000 kPa | – | 1123 ± 7 | 1114 ± 7 | 1105 ± 7 | 1096 ± 7 | 1087 ± 6 | 1078 ± 6 | 1068 ± 6 | 1059 ± 6
200000 kPa | – | 1126 ± 7 | 1117 ± 7 | 1108 ± 7 | 1099 ± 7 | 1091 ± 6 | 1082 ± 6 | 1072 ± 6 | 1062 ± 6

CCCCn1cc[n+](C)c1.F[P-](F)(F)(F)(F)F [1-butyl-3-methylimidazolium hexafluorophosphate]
mass density [kg/m3]
Details | 312.8 K | 332.6 K | 353.2 K | 372.7 K | 392.8 K | 412.8 K | 432.6 K | 452.5 K | 472.3 K
100 kPa | 1352 ± 4 | – | – | – | – | – | – | – | –
10000 kPa | 1358 ± 4 | 1342 ± 3 | 1325 ± 3 | 1310 ± 3 | 1299 ± 3 | 1284 ± 3 | 1269 ± 3 | 1254 ± 3 | 1240 ± 3
20000 kPa | 1363 ± 4 | 1347 ± 4 | 1332 ± 3 | 1317 ± 3 | 1305 ± 3 | 1290 ± 3 | 1276 ± 3 | 1262 ± 3 | 1248 ± 3
30000 kPa | 1368 ± 4 | 1353 ± 4 | 1338 ± 3 | 1323 ± 3 | 1311 ± 3 | 1297 ± 3 | 1283 ± 3 | 1269 ± 3 | 1256 ± 3
40000 kPa | 1373 ± 4 | 1358 ± 4 | 1343 ± 3 | 1329 ± 3 | 1317 ± 3 | 1303 ± 3 | 1290 ± 3 | 1276 ± 3 | 1263 ± 3
50000 kPa | 1378 ± 4 | 1363 ± 4 | 1349 ± 4 | 1334 ± 3 | 1323 ± 3 | 1309 ± 3 | 1296 ± 3 | 1283 ± 3 | 1270 ± 3
60000 kPa | 1383 ± 4 | 1368 ± 4 | 1354 ± 4 | 1339 ± 3 | 1329 ± 3 | 1315 ± 3 | 1302 ± 3 | 1289 ± 3 | 1276 ± 3
70000 kPa | 1388 ± 4 | 1373 ± 4 | 1359 ± 4 | 1345 ± 4 | 1334 ± 3 | 1321 ± 3 | 1308 ± 3 | 1295 ± 3 | 1282 ± 3
80000 kPa | 1392 ± 4 | 1378 ± 4 | 1364 ± 4 | 1350 ± 4 | 1339 ± 3 | 1326 ± 3 | 1313 ± 3 | 1301 ± 3 | 1289 ± 3
90000 kPa | 1396 ± 4 | 1382 ± 4 | 1368 ± 4 | 1355 ± 4 | 1344 ± 4 | 1331 ± 3 | 1319 ± 3 | 1306 ± 3 | 1294 ± 3
100000 kPa | 1400 ± 4 | 1387 ± 4 | 1373 ± 4 | 1360 ± 4 | 1349 ± 4 | 1336 ± 3 | 1324 ± 3 | 1312 ± 3 | 1300 ± 3
110000 kPa | 1405 ± 4 | 1391 ± 4 | 1377 ± 4 | 1364 ± 4 | 1354 ± 4 | 1341 ± 4 | 1329 ± 3 | 1317 ± 3 | 1305 ± 3
120000 kPa | 1409 ± 4 | 1395 ± 4 | 1382 ± 4 | 1369 ± 4 | 1359 ± 4 | 1346 ± 4 | 1334 ± 3 | 1322 ± 3 | 1311 ± 3
130000 kPa | 1412 ± 4 | 1399 ± 4 | 1386 ± 4 | 1373 ± 4 | 1363 ± 4 | 1351 ± 4 | 1339 ± 4 | 1327 ± 3 | 1316 ± 3
140000 kPa | 1416 ± 4 | 1403 ± 4 | 1390 ± 4 | 1377 ± 4 | 1367 ± 4 | 1355 ± 4 | 1343 ± 4 | 1332 ± 3 | 1320 ± 3
150000 kPa | 1420 ± 4 | 1407 ± 4 | 1394 ± 4 | 1381 ± 4 | 1372 ± 4 | 1360 ± 4 | 1348 ± 4 | 1336 ± 4 | 1325 ± 3
160000 kPa | 1424 ± 4 | 1411 ± 4 | 1398 ± 4 | 1385 ± 4 | 1376 ± 4 | 1364 ± 4 | 1352 ± 4 | 1341 ± 4 | 1330 ± 4
170000 kPa | 1427 ± 4 | 1415 ± 4 | 1402 ± 4 | 1389 ± 4 | 1380 ± 4 | 1368 ± 4 | 1357 ± 4 | 1345 ± 4 | 1334 ± 4
180000 kPa | 1431 ± 4 | 1418 ± 4 | 1405 ± 4 | 1393 ± 4 | 1384 ± 4 | 1372 ± 4 | 1361 ± 4 | 1350 ± 4 | 1339 ± 4
190000 kPa | 1435 ± 4 | 1422 ± 4 | 1409 ± 4 | 1397 ± 4 | 1388 ± 4 | 1376 ± 4 | 1365 ± 4 | 1354 ± 4 | 1343 ± 4
200000 kPa | 1438 ± 4 | 1425 ± 4 | 1413 ± 4 | 1401 ± 4 | 1392 ± 4 | 1380 ± 4 | 1369 ± 4 | 1358 ± 4 | 1347 ± 4

— the NIST ThermoML archive (doi:10.1016/j.fluid.2007.11.005)
